From US20150174095A1, “PHARMACEUTICAL COMPOSITIONS FOR THE TREATMENT OF VISUAL SYSTEM DISORDERS” (Allergan, Inc., priority 2013, published 2015)

Tests used:
[1] = molecular target: T1, human ASCT1 (Homo sapiens, UniProt P43007); test: [3H]L-serine transport into HEK cells expressing recombinant human ASCT1; format: cell-based; details: inhibition of [3H]L-serine transport, HEK cells with human ASCT1, n of 3-4; read-out: HEK1A4 ASCT1 IC50
T1 construct: expressed in transfected cells; host or cells: HEK293 cells stably expressing ASCT1
T1 sequence (P43007 1-532): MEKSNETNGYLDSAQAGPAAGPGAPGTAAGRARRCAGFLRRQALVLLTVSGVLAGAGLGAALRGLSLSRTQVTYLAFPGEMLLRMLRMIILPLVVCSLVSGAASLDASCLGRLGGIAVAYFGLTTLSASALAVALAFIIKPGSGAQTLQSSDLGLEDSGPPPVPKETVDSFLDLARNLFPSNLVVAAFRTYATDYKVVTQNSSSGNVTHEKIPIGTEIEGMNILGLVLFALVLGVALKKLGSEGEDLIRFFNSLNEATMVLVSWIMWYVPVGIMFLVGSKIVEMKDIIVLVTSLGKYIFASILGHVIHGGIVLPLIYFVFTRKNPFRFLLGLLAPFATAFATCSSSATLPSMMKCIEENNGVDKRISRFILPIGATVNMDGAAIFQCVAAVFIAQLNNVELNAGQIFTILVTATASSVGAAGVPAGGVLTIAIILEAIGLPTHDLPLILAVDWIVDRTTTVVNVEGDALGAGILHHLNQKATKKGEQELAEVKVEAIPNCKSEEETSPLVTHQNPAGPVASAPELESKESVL
Method: (§1) Cell-based assays: the transport of [^3H]L- or D-serine was measured in primary cultures of rat hippocampal astrocytes or in human embryonic kidney (HEK) cells expressing ASCT transporter sub-types. For the astrocyte assays, cells were plated on either 24- or 96-well plates at a density of 50,000 cells per well. For the HEK assays, cells were plated on coated 96-well plates at a density of 80,000 cells/well. Assays were conducted in duplicate at room temperature in assay buffer consisting of: NaCl: 150 mM, KCl: 2 mM; MgCl2: 1 mM; CaCl2: 1 mM; HEPES: Tris buffer: 10 mM, pH7.4. To assess the sodium-dependence of transport, NaCl was replaced in the assay buffer by equimolar choline chloride. Following aspiration of growth medium and 2 washes with assay buffer, cells were incubated with [^3H]L- or D-serine at a final concentration of 1 μM for 5 min (astrocytes) or 1 min (HEK cells), after which the incubation medium was aspirated and the cells washed twice with ice-cold assay buffer. Cells containing radiolabel were solubilized in 100 μl of 1% Triton-X100 and an aliquot counted in a beta counter. IC50 values were determined over a range of at least 6 concentrations and derived from curve-fitting algorithms available in GraphPad Prism 4. Table 2 reflects the IC50 values for the inhibition of [^3H]L-serine transport into astrocytes and HEK cells expressing recombinant human ASCT1 or ASCT2. […]

[2] = tested on: ASCT1/2; test: [3H]L-serine transport into primary rat hippocampal astrocytes; format: cell-based; details: for IC50: inhibition of [3H]L-serine transport, rat astrocytes, 6-12 point curves, n of 3-4, read-out: Astro ASCT1/2 IC50; for inhibition of radiolabelled substrate transport: rat brain astrocytes in culture
Method: Cell-based assays: the transport of [^3H]L- or D-serine was measured in primary cultures of rat hippocampal astrocytes or in human embryonic kidney (HEK) cells expressing ASCT transporter sub-types. For the astrocyte assays, cells were plated on either 24- or 96-well plates at a density of 50,000 cells per well. For the HEK assays, cells were plated on coated 96-well plates at a density of 80,000 cells/well. Assays were conducted in duplicate at room temperature in assay buffer consisting of: NaCl: 150 mM, KCl: 2 mM; MgCl2: 1 mM; CaCl2: 1 mM; HEPES: Tris buffer: 10 mM, pH7.4. To assess the sodium-dependence of transport, NaCl was replaced in the assay buffer by equimolar choline chloride. Following aspiration of growth medium and 2 washes with assay buffer, cells were incubated with [^3H]L- or D-serine at a final concentration of 1 μM for 5 min (astrocytes) or 1 min (HEK cells), after which the incubation medium was aspirated and the cells washed twice with ice-cold assay buffer. Cells containing radiolabel were solubilized in 100 μl of 1% Triton-X100 and an aliquot counted in a beta counter. IC50 values were determined over a range of at least 6 concentrations and derived from curve-fitting algorithms available in GraphPad Prism 4. Table 2 reflects the IC50 values for the inhibition of [^3H]L-serine transport into astrocytes and HEK cells expressing recombinant human ASCT1 or ASCT2. Values are IC50's in μM from 6-12 point inhibition curves, with an n of 3-4.

[3] = molecular target: T2, human ASCT2 (Homo sapiens, UniProt Q15758); test: [3H]L-serine transport into HEK cells expressing recombinant human ASCT2; format: cell-based; details: inhibition of [3H]L-serine transport, HEK cells with human ASCT2, n of 3-4; read-out: HEK1A5 ASCT2 IC50
T2 construct: expressed in transfected cells; host or cells: HEK293 cells stably expressing ASCT2
T2 sequence (Q15758 1-541): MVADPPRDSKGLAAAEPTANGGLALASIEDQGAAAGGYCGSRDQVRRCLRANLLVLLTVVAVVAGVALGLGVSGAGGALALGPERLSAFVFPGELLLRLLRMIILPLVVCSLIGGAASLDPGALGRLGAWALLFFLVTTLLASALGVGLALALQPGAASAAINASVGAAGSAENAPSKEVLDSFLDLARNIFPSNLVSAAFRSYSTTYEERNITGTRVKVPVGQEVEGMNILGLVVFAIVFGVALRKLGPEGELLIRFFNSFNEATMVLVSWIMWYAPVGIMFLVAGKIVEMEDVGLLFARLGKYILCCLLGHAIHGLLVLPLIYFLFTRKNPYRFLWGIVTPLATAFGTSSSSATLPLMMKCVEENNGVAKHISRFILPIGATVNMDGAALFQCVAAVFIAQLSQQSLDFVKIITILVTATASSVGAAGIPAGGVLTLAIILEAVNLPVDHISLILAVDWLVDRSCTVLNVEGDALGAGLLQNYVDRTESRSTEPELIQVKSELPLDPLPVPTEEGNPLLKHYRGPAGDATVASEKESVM
Method: as §1

[4] = molecular target: T1, human ASCT1; test: Whole cell patch-clamp transport currents in HEK cells expressing human ASCT1; format: cell-based; details: for effect on substrate-evoked inward current: HEK ASCT1, with 0.3 mM L-serine; for current in the absence of applied substrate: HEK ASCT1, without L-serine
Method: (§2) Patch-Clamp Recording in HEK 293 Cells (FIGS. 1A, 1B, 2A and 2B):
(§3) Transport currents were recorded in human embryonic kidney (HEK) cells expressing human ASCT1 or ASCT2 transporter using whole cell patch-clamp. Extracellular solution contains: 140 mM NaCl, 2.0 mM MgCl2, 2.0 CaCl2, 10 mM HEPES, pH 7.4. The recording pipettes were filled with ICM containing: 130 mM NaSCN, 10 mM EGTA, 2 mM MgCl2, 10 mM HEPES, 10 mM L-alanine pH 7.3. The inhibitory effects of compounds were measured without/with 300 μM L-serine and normalized to these by 4-hydroxy-phenyglycine (100%).

[5] = molecular target: T2, human ASCT2; test: Whole cell patch-clamp transport currents in HEK cells expressing human ASCT2; format: cell-based; details: for effect on substrate-evoked inward current: HEK ASCT2, with 0.3 mM L-serine; for current in the absence of applied substrate: HEK ASCT2, without L-serine
Method: as §2, §3

[6] = tested on: LTP in primary visual cortex; test: Visual cortex slice physiology: long-term potentiation (LTP); design: species or system rat
Method: Following decapitation of the rat, the brain was rapidly removed and immersed in ice-cold artificial cerebrospinal fluid (ACSF) containing 124 mM NaCl, 3 mM KCl, 1.25 mM KH2PO4, 3.4 mM CaCl2, 2.5 mM MgSO4, 26 mM NaHCO3, and 10 mM D-glucose. A block of visual cortex was created by removing the frontal ⅔ portion of the brain and the cerebellum. Coronal visual cortex slices of 375 μm were prepared from adult Sprague Dawley (SD) rats using a vibratome (VT 1000 S; Leica). The slices were maintained in an interface recording chamber perfused with preheated ACSF. Slices were continuously perfused with this solution at a rate of 1.00-1.50 ml/min while the surface of the slices was exposed to warm, humidified 95% O2/5% CO2 and maintained at 31±1° C. Visual cortex slices were allowed to recover for 1 hr before recording began. A single stimulating and recording electrode were placed in layer IV and III, respectively, to generate and record a field excitatory postsynaptic potentials (fEPSPs). […] This was repeated 2 additional times with a 1 minute intertrain interval, and the level of LTP was recorded for at least 30 min. Changes in amplitude of the synaptic response were used to measure the extent of LTP because it was determined to be the more consistent parameter than the slope of the response. […]

Row | Compound | IC50 [1] | IC50 [2] | inhibition of radiolabelled substrate transport [2] | IC50 [3] | effect on substrate-evoked inward current [4] | current in the absence of applied substrate [4] | effect on substrate-evoked inward current [5] | current in the absence of applied substrate [5] | effect on LTP in rat visual cortex slice ([6]; 0.1 and 0.3 μM) | concentration that enhanced LTP in visual cortex ([6]; rat visual cortex slice, as low as)
1 | O=C(O)[C@@H]1NC[C@H](OCc2cccc(Oc3ccccc3)c2)[C@H]1O (stereo in doubt) [(2R,3S,4S)-3-hydroxy-4-[(3-phenoxybenzyl)oxy]pyrrolidine-2-carboxylic acid] | 46.4 µM | 10.7 µM | completely inhibited | 65.2 µM | inhibited the substrate-evoked inward current | evoked an outward current | inhibited the substrate-evoked inward current | evoked an outward current |  | 
2 | O=C(O)[C@@H]1NC[C@H](OCc2ccc(-c3ccccc3)cc2)[C@H]1O (stereo in doubt) [(2R,3S,4S)-4-(biphenyl-4-ylmethoxy)-3-hydroxypyrrolidine-2-carboxylic acid] | 3.6 µM | 0.6 µM | completely inhibited | 2.8 µM | inhibited the substrate-evoked inward current | evoked an outward current | inhibited the substrate-evoked inward current | evoked an outward current | dose-dependently facilitates long-term potentiation (LTP) | ≤ 0.1 µM
